Data: patent US20260347373A1, “HETEROCYCLIC COMPOUNDS, COMPOSITIONS THEREOF, AND METHODS OF TREATMENT THEREWITH” (BeOne Medicines I GmbH, priority 2023, published 2026)
pIC50: −log10 of the molar value. Where a name gives a salt, the structure may show the parent alone.

Legend:
WT KRAS = WT KRAS (Homo sapiens, UniProt P01116); test: KRAS WT Probe Displacement Assay (TR-FRET, GDP-loaded); type: binding; conditions: KRAS WT, read-out: KRAS^WT Probe Displacement Assay IC50
From the text: (§1) The synthetic routes of probe 1 and 2, which have been disclosed in PCT/CN2022/070676, are hereby incorporated herein.

KRAS G12D = KRAS G12D (Homo sapiens, UniProt P01116, G12D); test: KRAS G12D Probe Displacement Assay (TR-FRET, GDP-loaded); type: binding; conditions: KRAS G12D, read-out: KRAS^G12D Probe Displacement Assay IC50
From the text: as §1

WT KRAS, sequence (P01116 1-188 isoform P01116-2): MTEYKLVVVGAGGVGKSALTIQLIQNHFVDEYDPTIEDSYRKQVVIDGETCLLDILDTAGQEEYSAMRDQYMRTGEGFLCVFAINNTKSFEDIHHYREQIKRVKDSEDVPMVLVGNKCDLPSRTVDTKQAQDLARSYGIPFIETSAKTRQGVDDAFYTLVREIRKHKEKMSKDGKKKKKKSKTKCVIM
KRAS G12D, sequence (P01116 1-188 isoform P01116-2 G12D): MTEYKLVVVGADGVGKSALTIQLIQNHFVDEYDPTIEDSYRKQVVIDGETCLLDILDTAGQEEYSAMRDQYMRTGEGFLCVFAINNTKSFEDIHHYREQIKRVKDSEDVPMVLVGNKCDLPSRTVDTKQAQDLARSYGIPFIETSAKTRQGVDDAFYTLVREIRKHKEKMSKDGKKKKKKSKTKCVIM

| SMILES | pIC50 (WT KRAS) | pIC50 (KRAS G12D) |
| --- | --- | --- |
| Cc1cc(N)cc(-c2nc3c4c(nc(OCC5(CN6CCCC67CCOC7)CC5)nc4c2F)N2C[C@H]4CC[C@H](N4)[C@H]2CCO3)c1C(F)(F)F (stereo partly drawn) [Example 190, 3-((6aR,7S,10R)-13-((1-((7-oxa-1-azaspiro[4.4]nonan-1-yl)methyl)cyclopropyl)methoxy)-1-fluoro-5,6,6a,7,8,9,10,11-octahydro-4-oxa-3,11a,12,14,15-pentaaza[7,10]methanocyclohepta[4,5]cycloocta[1,2,3-de]naphthalen-2-yl)-5-methyl-4-(trifluoromethyl)aniline] | 6.00 to 8.52 | > 9.52 |
| Cc1cc(N)cc(-c2nc3c4c(nc(OCC5(CN(C)C)CC5(F)F)nc4c2F)N2C[C@H]4CC[C@H](N4)[C@H]2CCO3)c1C(F)(F)F (single isomer, unassigned) [Example 17] | 6.00 to 8.52 | > 9.52 |
| Cc1cc(N)cc(-c2nc3c4c(nc(O[C@H]5C[C@@H]6C[C@H]5CN(C)C6)nc4c2F)N2C[C@H]4CC[C@H](N4)[C@H]2CCO3)c1C(F)(F)F [Example 198, 3-((6aR,7S,10R)-1-fluoro-13-(((1S,5S,6S)-3-methyl-3-azabicyclo[3.2.1]octan-6-yl)oxy)-5,6,6a,7,8,9,10,11-octahydro-4-oxa-3,11a,12,14,15-pentaaza-7,10-methanocyclohepta[4,5]cycloocta[1,2,3-de]naphthalen-2-yl)-5-methyl-4-(trifluoromethyl)aniline] | 6.00 to 8.52 | > 9.52 |
| CN(C)C[C@@]1(COc2nc3c4c(nc(-c5cc(N)cc(Cl)c5C(F)(F)F)c(F)c4n2)OCC[C@@H]2[C@@H]4CC[C@H](CN32)N4)CC1(F)F [Example 45, 3-chloro-5-((6aR,7S,10R)-13-(((R)-1-((dimethylamino)methyl)-2,2-difluorocyclopropyl)methoxy)-1-fluoro-5,6,6a,7,8,9,10,11-octahydro-4-oxa-3,11a,12,14,15-pentaaza-7,10-methanocyclohepta[4,5]cycloocta[1,2,3-de]naphthalen-2-yl)-4-(trifluoromethyl)aniline] | 8.52 to 9.52 | > 9.52 |
| Cc1cc(N)cc(-c2nc3c4c(nc(OC[C@@]56C[C@@H](F)CN5C[C@@]5(CC5(F)F)C6)nc4c2F)N2C[C@H]4CC[C@H](N4)[C@H]2CCO3)c1C(F)(F)F [Example 199, 3-((6aR,7S,10R)-1-fluoro-13-(((1S,6′R,7a′R)-2,2,6′-trifluorodihydro-1′H,3′H-spiro[cyclopropane-1,2′-pyrrolizin]-7a′(5′H)-yl)methoxy)-5,6,6a,7,8,9,10,11-octahydro-4-oxa-3,11a,12,14,15-pentaaza[7,10]methanocyclohepta[4,5]cycloocta[1,2,3-de]naphthalen-2-yl)-5-methyl-4-(trifluoromethyl)aniline] | 8.52 to 9.52 | > 9.52 |
| Cc1cc(N)cc(-c2nc3c4c(nc(OCC5(CN6C[C@@H](F)[C@@H](O)C6)CC5)nc4c2F)N2C[C@H]4CC[C@H](N4)[C@H]2CCO3)c1C(F)(F)F (stereo in doubt) [Example 95, cis-1-((1-((((6aR, 7S,10R)-2-(5-amino-3-methyl-2-(trifluoromethyl)phenyl)-1-fluoro-5,6,6a,7,8,9,10,11-octahydro-4-oxa-3,11a,12,14,15-pentaaza-7,10-methanocyclohepta [4,5]cycloocta[1,2,3-de]naphthalen-13-yl)oxy)methyl)cyclopropyl)methyl)-4-fluoropyrrolidin-3-ol formate] | 6.00 to 8.52 | > 9.52 |
| Cc1cc(N)cc(-c2nc3c4c(nc(O[C@H](C)[C@@H]5CCCN5C)nc4c2F)N2C[C@H]4CC[C@H](N4)[C@H]2CCO3)c1C(F)(F)F [Example 38, 3-((6aR,7S,10R)-1-fluoro-13-((R)-1-((S)-1-methylpyrrolidin-2-yl)ethoxy)-5,6,6a,7,8,9,10,11-octahydro-4-oxa-3,11a,12,14,15-pentaaza-7,10-methanocyclohepta[4,5]cycloocta [1,2,3-de]naphthalen-2-yl)-5-methyl-4-(trifluoromethyl)aniline] | 6.00 to 8.52 | 8.52 to 9.52 |
| CO[C@@H]1CN2C[C@H](F)C[C@]2(COc2nc3c4c(nc(-c5cc(N)cc(Cl)c5C(F)(F)F)c(F)c4n2)OCC[C@@H]2[C@@H]4CC[C@H](CN32)N4)C1 [Example 217, 3-chloro-5-((6aR,7S,10R)-1-fluoro-13-(((2R,6S,7aS)-2-fluoro-6-methoxytetahydro-1H-pyrrolizin-7a(5H)-yl)methoxy)-5,6,6a,7,8,9,10,11-octahydro-4-oxa-3,11a,12,14,15-pentaaza-7,10-methanocyclohepta[4,5]cycloocta[1,2,3-de]naphthalen-2-yl)-4-(trifluoromethyl)aniline] | 6.00 to 8.52 | > 9.52 |
| Cc1cc(N)cc(-c2nc3c4c(nc(OCC5(CN6C[C@H](O)[C@@H](F)C6)CC5)nc4c2F)N2C[C@H]4CC[C@H](N4)[C@H]2CCO3)c1C(F)(F)F (stereo in doubt) [Example 94, trans-1-((1-((((6aR, 7S,10R)-2-(5-amino-3-methyl-2-(trifluoromethyl)phenyl)-1-fluoro-5,6,6a,7,8,9,10,11-octahydro-4-oxa-3,11a,12,14,15-pentaaza-7,10-methanocyclohepta [4,5]cycloocta[1,2,3-de]naphthalen-13-yl)oxy)methyl)cyclopropyl)methyl)-4-fluoropyrrolidin-3-ol formate] | 6.00 to 8.52 | > 9.52 |
| Cc1cc(N)cc(-c2nc3c4c(nc(OCC5(CN6CCC(C)(O)C6)CC5)nc4c2F)N2C[C@H]4CC[C@H](N4)[C@H]2CCO3)c1C(F)(F)F (stereo partly drawn) [Example 93, 1-((1-((((6aR,7S, 10R)-2-(5-amino-3-methyl-2-(trifluoromethyl)phenyl)-1-fluoro-5,6,6a,7,8,9,10,11-octahydro-4-oxa-3,11a,12,14,15-pentaaza-7,10-methanocyclohepta [4,5]cycloocta[1,2,3-de]naphthalen-13-yl)oxy)methyl)cyclopropyl)methyl)-3-methylpyrrolidin-3-ol] | 6.00 to 8.52 | > 9.52 |
| Cc1cc(N)cc(-c2nc3c4c(nc(OCC5(CN(C)C)CC5)nc4c2F)N2C[C@H]4CC[C@H](N4)[C@H]2CCO3)c1C(F)(F)F [Example 56, 3-((6aR,7S,10R)-13-((1-((dimethylamino)methyl)cyclopropyl)methoxy)-1-fluoro-5,6,6a,7,8,9,10,11-octahydro-4-oxa-3,11a,12,14,15-pentaaza-7,10-methanocyclohepta[4,5]cycloocta [1,2,3-de]naphthalen-2-yl)-5-methyl-4-(trifluoromethyl)aniline] | 6.00 to 8.52 | > 9.52 |
| Cc1cc(N)cc(-c2nc3c4c(nc(OCC5(CN6CCC(OC(F)(F)F)CC6)CC5)nc4c2F)N2C[C@H]4CC[C@H](N4)[C@H]2CCO3)c1C(F)(F)F [Example 177, 3-((6aR,7S,10R)-1-fluoro-13-((1-((4-(trifluoromethoxy)piperidin-1-yl)methyl)cyclopropyl)methoxy)-5,6,6a,7,8,9,10,11-octahydro-4-oxa-3,11a,12,14,15-pentaaza-7,10-methanocyclohepta[4,5]cycloocta[1,2,3-de]naphthalen-2-yl)-5-methyl-4-(trifluoromethyl)aniline] | 8.52 to 9.52 | > 9.52 |
| Cc1cc(N)cc(-c2nc3c4c(nc(OCC5(CN6CCCOCC6)CC5)nc4c2F)N2C[C@H]4CC[C@H](N4)[C@H]2CCO3)c1C(F)(F)F [Example 103, 3-((6aR,7S,10R)-13-- ((1-((1,4-oxazepan-4-yl)methyl)cyclopropyl)methoxy)-1-fluoro-5,6,6a,7,8,9,10,11-octahydro-4-oxa-3,11a, 12,14,15-pentaaza-7,10-methanocyclohepta [4,5]cycloocta [1,2,3-de]naphthalen-2-yl)-5-methyl-4-(trifluoromethyl)aniline] | 6.00 to 8.52 | > 9.52 |
| Cc1cc(N)cc(-c2nc3c4c(nc(O[C@@H](C)[C@@H]5CC6(CC6)CN5C)nc4c2F)N2C[C@H]4CC[C@H](N4)[C@H]2CCO3)c1C(F)(F)F [Example 143, 3-((6aR,7S,10R)-1-fluoro-13-((S)-1-((S)-5-methyl-5-azaspiro[2.4]heptan-6-yl)ethoxy)-5,6,6a,7,8,9,10,11-octahydro-4-oxa-3,11a,12,14,15-pentaaza[7,10]methanocyclohepta [4,5]cycloocta[1,2,3-de]naphthalen-2-yl)-5-methyl-4-(trifluoromethyl)aniline] | 6.00 to 8.52 | > 9.52 |
| Cc1cc(N)cc(-c2nc3c4c(nc(OCC5(CN(C)C)CC5(F)F)nc4c2F)N2C[C@H]4CC[C@H](N4)[C@H]2CCO3)c1C(F)(F)F (stereo partly drawn) [Example 16] | 6.00 to 8.52 | > 9.52 |
| Cc1cc(N)cc(-c2nc3c4c(nc(OCC5(CN6CCC7(CC6)CC(F)(F)C7)CC5)nc4c2F)N2C[C@H]4CC[C@H](N4)[C@H]2CCO3)c1C(F)(F)F [Example 173, 3-((6aR,7S,10R)-13-((1-((2,2-difluoro-7-azaspiro[3.5]nonan-7-yl)methyl)cyclopropyl)methoxy)-1-fluoro-5,6,6a,7,8,9,10,11-octahydro-4-oxa-3,11a,12,14,15-pentaaza[7,10]methanocyclohepta[4,5]cycloocta[1,2,3-de]naphthalen-2-yl)-5-methyl-4-(trifluoromethyl)aniline] | 6.00 to 8.52 | > 9.52 |
| CN(C)CC1(COc2nc3c4c(nc(-c5cc(N)cc(Cl)c5C(F)(F)F)c(F)c4n2)OCC[C@@H]2[C@@H]4CC[C@H](CN32)N4)CC1F (single isomer, unassigned) [Example 52] | 8.52 to 9.52 | > 9.52 |
| Cc1cc(N)cc(-c2nc3c4c(nc(OCC5(CN6C[C@H]7C[C@H]7[C@H]6C)CC5)nc4c2F)N2C[C@H]4CC[C@H](N4)[C@H]2CCO3)c1C(F)(F)F [Example 172, 3-((6aR,7S,10R)-1-fluoro-13-((1-(((1R,2R,5S)-2-methyl-3-azabicyclo[3.1.0]hexan-3-yl)methyl)cyclopropyl)methoxy)-5,6,6a,7,8,9,10,11-octahydro-4-oxa-3,11a,12,14,15-pentaaza-7,10-methanocyclohepta[4,5]cycloocta[1,2,3-de]naphthalen-2-yl)-5-methyl-4-(trifluoromethyl)aniline] | 6.00 to 8.52 | > 9.52 |
